According to publication PMC11605291 (Frontiers in Pharmacology, 2024):

Key:
[1] = Metabolite profiling and identification in plasma, urine and feces (LC/RAM/MS); type: in vivo, human; conditions: for Plasma %AUC (percentage of total plasma radioactivity): AUC-pooled 0–72 h plasma; for Plasma %AUC (percentage of total plasma radioactivity) / Urine %Dose / Feces %Dose: mean of 6 subjects; for Urine %Dose: pooled 0–72 h urine, total in urine 37.15%; for Feces %Dose: pooled 0–168 h feces, total in feces 62.08%
Procedure: The plasma samples from six subjects were pooled individually according to the AUC method to obtain 6 plasma samples of 0–72 h ([Hop et al., 1998]). A portion of the proportionally mixed plasma sample was taken and added to a certain volume of acetonitrile (3×, v/v) for extraction, vortexed for 1 min, shaken for 10 min and then stored in a refrigerator at 4°C for 30 min, the mixture was removed and vortexed for 2 min and then centrifuged for 10 min at 10,000×g and 4°C. The residue from the extraction was firstly ultrasonically suspended using 1 mL of ultrapure water and then extracted using methanol (2×, v/v) and repeated twice. The organic solvent extracts were combined, blown dry with nitrogen and reconstituted with acetonitrile: ultrapure water (1:1), the reconstituted solution was centrifuged at 4°C and 10,000×g for 10 min, and the supernatant was used for radio-metabolite profiling.
The radioactivity in the organic solvent extract and the reconstitution solution was determined by LSC. The solid residue after extraction was dissolved by heating with 1N KOH solution and added to the scintillation solution to determine its radioactivity. All the final data were used to examine the recovery of radioactivity during plasma extraction.
The urine samples from the six subjects were mixed in the same volume percentage to obtain six 0–72 h urine samples. A portion of the proportionally mixed urine sample was centrifuged for 10 min at approximately 10,000×g and 4°C. Two samples were taken before and after centrifugation, and the radioactivity of the samples was determined by LSC, and the data obtained were used to calculate the recovery of radioactivity during the centrifugation process. A portion of the supernatant after centrifugation was used directly for radio-metabolite profiling.
The fecal samples from the six subjects were mixed with the same weight percentage to obtain 6 fecal homogenate samples of 0–168 h. A portion of the proportionally mixed fecal homogenate samples was taken and extracted by adding a volume of acetonitrile (3×, v/v), vortexed for 5 min at room temperature, sonicated for 5 min and then centrifuged for 10 min at 10,000 × g and 4°C. The residue of the extracted material was firstly sonicated and mixed using about 1 mL of ultrapure water before extracted using methanol (2×, v/v). The process was repeated twice and the organic extracts were combined, blown dry using nitrogen and then reconstituted with dimethyl sulfoxide: acetonitrile: ultrapure water (3:2:5), the reconstituted solution was centrifuged at 10,000×g at 4°C for 10 min and the supernatant was used for radio-metabolite profiling. […] LSC was used to determine the intensity of radioactivity contained in the organic solvent extract and in the reconstituted solution. The solid residue after extraction is fully combusted by an oxidative combustor, and the [^14C]carbon dioxide produced by combustion of the sample is captured with a scintillation solution to determine its radioactivity intensity. All final data were used to examine the extraction and recovery of radioactivity from fecal homogenate samples.
A high performance liquid chromatograph coupled with an online isotope detector and mass spectrometry (LC/RAM/MS) was used for the identification of radioactive metabolite profiles. The HPLC method consisted of an HPLC system (Shimadzu UFLC-20A-Lite), a chromatographic column (ACE Excel 3 C18, 150 × 4.6 mm id), mobile phase A (0.4% aqueous formic acid, pH = 3.2 adjusted with ammonia) and mobile phase B (acetonitrile) at a flow rate of 0.7 mL/min. The gradient was 0% B for the 0–5 min, 20% B from 15 min to 30 min, 22% B from 32 to 40 min, and 70%–100% B from 60 to 72 min. The column temperature was 28°C. […]

[2] = system: cDNA-expressed recombinant human cytochrome P450s and silensomes as well as human liver microsomes with selective chemical CYP inhibitors; design: method as in unpublished data; conditions: conducted in Hutch-Med DMPK department ref unpublished data; cited from earlier work

Structure (SMILES) | F: %Dose in feces (Figure 4) [1] | P: %AUC in plasma (Figure 4) [1] | U: %Dose in urine (Figure 4) [1] | Plasma %AUC (percentage of total plasma radioactivity) [1] | Urine %Dose [1] | Feces %Dose [1] | %Dose in pooled feces ([1]; subject 01001) | %Dose in pooled feces ([1]; subject 01002) | %Dose in pooled feces ([1]; subject 01003) | %Dose in pooled feces ([1]; subject 01004) | %Dose in pooled feces ([1]; subject 01005) | %Dose in pooled feces ([1]; subject 01006) | %AUC in AUC-pooled plasma ([1]; subject 01004) | %AUC in AUC-pooled plasma ([1]; subject 01005) | %AUC in AUC-pooled plasma ([1]; subject 01006) | enzyme involved in the formation of the metabolite from amdizalisib [2] | further results
C[C@H](Nc1ncnc(N)c1C(N)=O)c1cc2ncc(Cl)n2nc1-c1ccccc1 [M408] | 1.04% | + | + | detected by mass spectrometry, but could not be quantified and + | detected by mass spectrometry, but could not be quantified and + | 1.04 %Dose | 0.40 %Dose | 0.91 %Dose | 2.11 %Dose | 0.69 %Dose | 1.53 %Dose | 0.60 %Dose |  |  |  |  | 
C[C@H](Nc1nc(O)nc(N)c1C#N)c1cc2ncc(Cl)n2nc1-c1ccccc1 [M406-2] | 11.30% | 20.91% | 8.08% | 20.91 %AUC | 8.08 %Dose | 11.30 %Dose | 9.93 %Dose | 13.05 %Dose | 10.17 %Dose | 5.32 %Dose | 14.97 %Dose | 14.33 %Dose | 16.67 %AUC | 20.09 %AUC | 36.04 %AUC | aldehyde oxidase | contribution to amdizalisib metabolism ([1]; estimated from the metabolite amounts in excreta): around 20%; %AUC in AUC-pooled plasma ([1]; subject 01001): 16.31 %AUC; %Dose in pooled urine ([1]; subject 01001): 8.77 %Dose; %AUC in AUC-pooled plasma ([1]; subject 01002): 16.12 %AUC; %Dose in pooled urine ([1]; subject 01002): 9.03 %Dose; %AUC in AUC-pooled plasma ([1]; subject 01003): 20.20 %AUC; %Dose in pooled urine ([1]; subject 01003): 8.92 %Dose; %Dose in pooled urine ([1]; subject 01004): 7.29 %Dose; %Dose in pooled urine ([1]; subject 01005): 6.50 %Dose; %Dose in pooled urine ([1]; subject 01006): 7.98 %Dose
C[C@H](Nc1ncnc(N)c1C#N)c1cc2ncc(Cl)n2nc1-c1ccc(O)cc1 [M406-1] | 5.06% | 0.12% |  | 0.12 %AUC |  | 5.06 %Dose | 4.78 %Dose | 5.18 %Dose | 5.65 %Dose | 6.15 %Dose | 4.03 %Dose | 4.54 %Dose | 0.16 %AUC | 0.26 %AUC | 0.27 %AUC | formed primarily by CYP2C9 | 
CC(=O)c1cc2ncc(Cl)n2nc1-c1ccccc1 [M271] | + | + | + | detected by mass spectrometry, but could not be quantified and + | detected by mass spectrometry, but could not be quantified and + | detected by mass spectrometry, but could not be quantified and + |  |  |  |  |  |  |  |  |  |  | 
